This test relates to CEM cells HIV-1 protection, formazan growth assay. The test is described as follows: NCI AIDS Antiviral Assay. The note with it: for IC50: measured here: growth of uninfected CEM cells. A digest of the protocol:
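Human CEM cells, uninfected and HIV-1-infected, exposed to five drug concentrations; growth measured by soluble formazan assay and scored as percent protection from infection, with protecting compounds retested.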

The source made the active and inactive calls.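 The calls were made as follows: active = compounds giving half or more protection of infected cells from virus-caused growth loss, again on retest; inactive = the rest.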 Where a SMILES comes first, the peptide text is derived from it. Bounds are passed on as bounds.

The EC50 is the midpoint of the concentration-response curve. The term IC50 denotes the concentration at which inhibition is half-maximal. A lower IC50 goes with greater potency in that assay. For `COC(=O)[C@H](Cc1ccccc1)NC(=O)N1CCCN(C(=O)N[C@@H](Cc2ccccc2)C(=O)OC)CCCN(C(=O)N[C@@H](Cc2ccccc2)C(=O)OC)CCC1`, the EC50 is more than 100 µM and the 50% inhibitory concentration (IC50) is 27.5 µM. For `Cc1ccc(S(=O)(=O)/N=S(\C)c2ccc(Cl)cc2)cc1` (stereo unspecified), the EC50 was more than 759 µM and the IC50 stood at 178 µM. Consider `CCCCCCc1cc2cc(-c3csc(CC#N)n3)c(=O)oc2cc1O`, for which the EC50 is more than 200 µM and the IC50 is more than 200 µM.

As to `CC1(/C=C/CCSc2ccccc2)CC(=O)C2CC1C2(C)C` (stereo unspecified), the EC50 is more than 200 µM and the IC50 was determined as 7.94 µM.

For `CNC(=O)N(C)CN(C)C(=O)NC`, the EC50 was more than 479 µM and the half-inhibitory concentration (IC50) came to 229 µM. For the compound `COc1ccc(-c2c(C(C)=O)c(-c3ccccc3)n(C3OC(CO)C(O)C(O)C3O)c(=S)c2C#N)cc1` (stereo unspecified), the EC50 is more than 200 µM and the IC50 was more than 200 µM. `CC(NC(=O)OC(C)(C)C)C(=O)C(N)=O` (stereo unspecified): the EC50 is more than 200 µM and the 50% inhibitory concentration (IC50) is more than 200 µM.

With `COc1cccc(/C=N/[N-]C(N)=O)c1[O-].[Cu+2].[OH3+].c1ccc(-c2ccccn2)nc1`, the result was inactive.

On to `C=C1C2CCC3(CCC4C5(C)CCCC4(CN(C(C)=O)C5)C3C2)C1O` (stereo unspecified), for which the result was inactive. With `CC1(C)C2CCC(=O)C1C(OCc1ccccc1)C2` (stereo unspecified), the EC50 was more than 200 µM and the concentration for half-maximal inhibition (IC50) was 95.5 µM. On to `O=C1c2ccccc2Sc2ccccc2N1CCCCCCN1CCN(c2ccc(F)cc2)CC1`, for which the EC50 is more than 200 µM and the IC50 is 10.5 µM. The corresponding values for `CCOC(=O)NC(Nc1ncn(C(NC(=O)OCC)(C(F)(F)F)C(F)(F)F)n1)(C(F)(F)F)C(F)(F)F` are more than 200 µM and more than 200 µM. On to `CCn1c(SCc2nnc(Nc3ccccc3)s2)nc2ccccc2c1=O`, for which the EC50 was more than 200 µM and the concentration for half-maximal inhibition (IC50) is 69.2 µM. Take `C[N+]12CC3C4CC(C3C1)C2C4` (stereo unspecified): the EC50 is more than 912 µM and the IC50 was more than 912 µM. In the case of `COc1cc(C(=O)/C=C/c2ccccc2O)ccc1O`, the EC50 is more than 132 µM and the 50% inhibitory concentration (IC50) came to 102 µM. For `CC(N)C(=O)NCC(=O)NC(CO)C(=O)NC(CCC(N)=O)C(=O)NC(CCC(=O)O)C(=O)N1CCCC1C(=O)NC(CCCCN)C(=O)NC(CCC(=O)O)C(=O)NC(CCC(N)=O)C(=O)NC(CO)C(=O)NC(CO)C(=O)NC(Cc1ccc(O)cc1)C(=O)NC(CO)C(=O)NC(Cc1cnc[nH]1)C(=O)NC(CO)C(=O)O` (stereo unspecified) (H-AGSQEPKEQSSYSHS-OH; configuration not given here), the EC50 was more than 100 µM and the IC50 was more than 100 µM. `O=C(CSc1nnc(Cc2ccccc2)o1)Nc1ccc(Cl)cc1[N+](=O)[O-]`: the EC50 is more than 617 µM and the IC50 was determined as 25.1 µM. As to `N#CCc1c(F)c(F)c(F)c(F)c1F`, the EC50 was more than 200 µM and the 50% inhibitory concentration (IC50) is more than 200 µM. Turning to `COc1ccccc1/C=C/C(=O)C(C)(C)C`, the EC50 was more than 120 µM and the IC50 was 69.2 µM. Consider `O=[N+]([O-])C(/C=C(\Cl)[N+](=O)[O-])=C1Nc2ccccc2N1`, for which the EC50 is more than 200 µM and the IC50 turned out to be 35.5 µM. As to `CC(C)OC1NC(=O)Oc2ccccc21` (stereo unspecified), the EC50 is more than 200 µM and the IC50 came out at 132 µM. Consider `CCC(=O)C1(c2ccccc2)CCN(C)CC1`, for which the EC50 is more than 1070 µM.

As to `c1ccc2c(c1)Cc1c(Cc3csc4ccccc34)ccc3cccc-2c13`, the EC50 was more than 7.24 µM and the IC50 is more than 7.24 µM.

As for `COc1ccc(N2C(=O)C3c4[nH]c5cccc(C)c5c4C4CCC(C(C)(C)C)CC4C3C2=O)cc1` (stereo unspecified), the EC50 was more than 200 µM and the IC50 turned out to be 89.1 µM. On to `C[C@H]1S[C@@H](c2ccc(Cl)cc2Cl)N(NC(=O)c2ccncc2)C1=O`, for which the EC50 was more than 200 µM and the half-maximal inhibitory concentration (IC50) came to 74.1 µM. With `C[C@]12C[C@@H](c3ccccc3)Nc3ccccc3N1C(c1ccccc1)=NO2`, the EC50 was more than 200 µM and the IC50 is 30.9 µM. Turning to `CC(C)(C)c1cc(C=C(C#N)C#N)cc(C(C)(C)C)c1O`, the EC50 is more than 20 µM and the IC50 was found to be 0.372 µM.
